Measured values: PMC3933693, “Novel Inhibitors of Mitochondrial sn-Glycerol 3-phosphate Dehydrogenase” (PLoS ONE, 2014)
Values joined by “and” are separate entries in the source; they are usually repeats but may differ in a detail not shown here. Identical values can stand only once.

Experiments:
cortical synaptosomes = assay: Synaptosomal respiration (Seahorse XF24); format: cell-based, mouse; conditions: 100 µM iGP-1, 0.5 mM aminooxyacetate
Method: Synaptosomal respiration was tested in the Seahorse XF24 using published protocols, [41]. Synaptosomes (20 or 25 µg protein) were attached to polyethyleneimine and Geltrex-coated Seahorse plates by centrifugation in ionic medium, [41] containing 10 mM glucose. Attachment buffer was carefully replaced with ionic buffer containing DMSO, 100 µM iGP-1, 0.5 mM aminooxyacetate, or iGP-1 with aminooxyacetate, and either 10 mM pyruvate or 15 mM glucose. Plates were equilibrated for 20 min at 37°C then loaded into the instrument followed by measurement of basal respiration and injection of 5 µM FCCP (to induce maximal, uncoupled respiration) with 4 µg ⋅ mL^−1 oligomycin (to prevent compensatory reversal of ATP synthase). In some experiments, 10 mM oxamate was added with the FCCP/oligomycin to minimize regeneration of cytosolic NAD^+ by lactate dehydrogenase. Inhibition of the malate-aspartate shuttle was defined as the difference between maximal rates ± aminooxyacetate, expressed as % of control. Inhibition of the glycerol phosphate shuttle was the difference between maximal rates with aminooxyacetate ± iGP-1, as % of control.

[1] = system: ubiquinone-binding site of complex I (site IQ); assay: Site-specific H2O2 production from site IQ in skeletal muscle mitochondria; format: biochemical, rat; conditions: 80 μM; 5 mM succinate;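 further: H2O2 from superoxide detected by Amplex UltraRed fluorescence with added superoxide dismutase and horseradish peroxidase, endpoint read 30–40 min after substrate addition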
Method: Superoxide was measured as H2O2 after dismutation by endogenous or exogenous superoxide dismutase. Rates of total superoxide/H2O2 production were measured fluorimetrically using Amplex UltraRed in the presence of exogenous superoxide dismutase and horseradish peroxidase in a Varian Cary Eclipse fluorimeter as previously described [27]. Rates of production from specific sites were determined as previously described using the following eight conditions: flavin mononucleotide site of complex I (site IF) plus matrix NAD-linked dehydrogenases (collectively "site IF/DH") with 5 mM glutamate, 5 mM malate, and 4 µM rotenone [28]; ubiquinone-binding site of complex I (site IQ) with either 0.5 or 5 mM succinate [29]; flavin site of complex II (site IIF) with either 15 µM palmitoylcarnitine, 2.5 µM antimycin A, and 2 µM myxothiazol or 0.5 mM succinate, 4 µM rotenone, 2.5 µM antimycin A, and 2 µM myxothiazol [30], [31]; mGPDH with 1.7 mM glycerol phosphate, 4 µM rotenone, 2.5 µM antimycin A, 2 µM myxothiazol, 1 mM malonate, and 250 nM free calcium; outer ubiquinone-binding site of complex III (site IIIQo) with either 0.5 or 5 mM succinate, 4 µM rotenone and 2.5 µM antimycin A [32]. Candidate small-molecule inhibitors were added prior to the start of measurements and H2O2 calibration curves were performed in the presence of tested compounds.
3,200 compounds were tested initially at 2.5 µM (0.025% DMSO final) in duplicate on different plates against a panel of five distinct assays of site-specific superoxide/H2O2 production as described in the previous section with minor changes. […] Endpoint fluorescence was measured on a Perkin Elmer Victor V3 fluorescent plate reader. The fluorescence intensity of each well was normalized as % change from the average of eight DMSO controls on the same plate. Duplicate wells of each of four modulators of mitochondrial metabolism known to inhibit specific sites of superoxide/H2O2 production were included on each plate as positive controls and the resulting fluorescence levels set as −100% change from DMSO controls. Known inhibitors included 20 mM aspartate (for site IF/DH), 1 µM FCCP (for site IQ), 10 mM malonate (for site IIF), and 2 µM myxothiazol (for site IIIQo). The background fluorescence of the FCCP wells in the site IQ assay was used to normalize mGPDH plates run in parallel. To minimize position-dependent effects across each assay plate, Tukey’s two-way median polish was applied to fluorescence values after initial normalization [35], [36]. Tukey’s polish is an iterative subtraction of the median row and column values from each well’s given row or column. The procedure is repeated until sequential medians for each row and column are zero and positional gradients in fluorescence are eliminated.
These 20 compounds were tested in duplicate at 0.08–80 µM (0.1% DMSO final) in microplate format for effects on site-specific H2O2 production as described above. […] Plates were incubated in the dark at room temperature for 30–40 min (H2O2) or 10–15 min (ΔΨm) after the addition of substrate, and endpoint fluorescence was measured on the Victor plate reader. Endpoints were chosen for the H2O2 assays to provide good signal-to-noise ratios and linear rates of change without the indicator dye limiting the reaction.

mGPDH [2] = biological target: T1, mGPDH (Rattus norvegicus, UniProt P35571); assay: mGPDH enzymatic activity (DCPIP-linked reduction by glycerol phosphate) in frozen-thawed skeletal muscle mitochondria; format: biochemical
T1 construct: from tissue; host or cells: skeletal muscle mitochondria
T1 sequence (P35571 43-727): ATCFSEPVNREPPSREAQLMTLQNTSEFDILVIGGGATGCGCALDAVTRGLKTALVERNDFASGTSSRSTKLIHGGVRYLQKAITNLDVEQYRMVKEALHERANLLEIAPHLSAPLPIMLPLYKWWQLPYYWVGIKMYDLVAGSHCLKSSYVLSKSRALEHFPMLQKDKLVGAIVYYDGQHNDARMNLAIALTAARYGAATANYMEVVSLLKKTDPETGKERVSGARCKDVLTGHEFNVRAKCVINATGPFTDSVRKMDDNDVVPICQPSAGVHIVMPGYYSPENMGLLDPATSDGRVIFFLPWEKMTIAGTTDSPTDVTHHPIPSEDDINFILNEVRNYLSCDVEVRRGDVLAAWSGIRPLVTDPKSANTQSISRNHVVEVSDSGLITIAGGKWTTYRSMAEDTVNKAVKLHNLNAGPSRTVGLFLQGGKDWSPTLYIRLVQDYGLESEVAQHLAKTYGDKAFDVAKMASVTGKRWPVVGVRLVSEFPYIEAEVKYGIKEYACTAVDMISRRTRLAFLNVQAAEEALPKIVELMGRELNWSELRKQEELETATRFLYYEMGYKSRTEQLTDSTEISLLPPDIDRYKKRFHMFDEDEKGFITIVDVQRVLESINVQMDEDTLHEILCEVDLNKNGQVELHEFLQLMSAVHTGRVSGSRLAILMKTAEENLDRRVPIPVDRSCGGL
Method: Activity of mGPDH in frozen-thawed skeletal muscle mitochondria was measured as 2,6-dichlorophenolindophenol (DCPIP)-linked reduction by glycerol phosphate as described previously in the presence of 1 µM free calcium. Linear rates of change in absorbance (λ = 600 nm) were measured on the PHERAstar microplate reader and converted to rates of DCPIP reduction using an extinction coefficient of 21 mM^−1 ⋅ cm^−1 and a calculated pathlength of 0.6 cm. Kinetic parameters and inhibitor constants were determined by co-varying glycerol phosphate and novel inhibitors according to recommended procedures and calculated for each data set using GraphPad Prism. Vmax and Km were determined using hyperbolic curves fit to the Michaelis-Menten equation: rate = (Vmax ⋅ [substrate]) ⋅ (K m+[substrate])^ −1. Hill Slope and IC50 were determined using unconstrained, sigmoidal dose-response curve fits of % remaining activity against concentration of iGP. K ic and K iu were determined using plots of rate^−1 vs iGP and GP ⋅ rate^−1 vs iGP, respectively. Linear regression analysis yielded an average x-coordinate at which the best-fit lines intersect. These x-coordinates correspond to -K ic and -K iu in their respective plots. The apparent Vmax of mGPDH is dependent upon the concentration of DCPIP used, [38]. Therefore, to determine the maximal activity of mGPDH in isolated synaptosomes, DCPIP was replaced by 1 mM potassium ferricyanide and linear rates of change in absorbance (λ = 420 nm) were converted to rates of ferricyanide reduction using an extinction coefficient of 1.04 mM^−1 ⋅ cm^−1 and a calculated pathlength of 0.6 cm.

[3] = system: skeletal muscle mitochondria; assay: Mitochondrial membrane potential (ΔΨm, TMRM) powered by glycerol phosphate; format: biochemical, rat; conditions: 16.7 mM glycerol phosphate
Method: (§1) Mitochondrial membrane potential (ΔΨm) was estimated fluorimetrically as described previously [33] on the Varian fluorimeter, except the potentiometric dye TMRM was used in quench-mode in place of safranine O [34]. […] The effect of putative small-molecule inhibitors was normalized as the % change in fluorescence between vehicle treatment and complete depolarization by the uncoupler carbonyl cyanide-4-(trifluoromethoxy)phenylhydrazone (FCCP, 2 µM) added at the end of each run. When indicated, the K^+/H^+ exchanger nigericin (80 ng ⋅ ml^−1) was added to collapse the pH gradient across the mitochondrial inner membrane (ΔpH) and maximize ΔΨm.
(§2) Additionally, four microplate assays for ΔΨm were run in parallel to the H2O2 assays. These assays were as described under “Measurement of mitochondrial H2O2 production and membrane potential” except that each substrate condition was assayed in a separate microplate. […] Plates were incubated in the dark at room temperature for 30–40 min (H2O2) or 10–15 min (ΔΨm) after the addition of substrate, and endpoint fluorescence was measured on the Victor plate reader. […] Endpoints for the ΔΨm assays were determined in pilot experiments as the times for TMRM accumulation to reach a steady state. At room temperature, this was typically ∼ 5 min and remained stable for at least 30 min. Endpoint fluorescence values were normalized as described in the previous section with wells containing FCCP serving as positive controls for the ΔΨm assays.

[4] = system: skeletal muscle mitochondria; assay: Mitochondrial respiration (Seahorse XF24) in plate-attached skeletal muscle mitochondria; format: biochemical, rat
Method: The effects of small-molecule inhibitors on respiration were tested in plate-attached skeletal muscle mitochondria using a Seahorse XF24 Analyzer according to published protocols. Briefly, mitochondria (2 or 4 µg protein) were attached to Seahorse assay plates by centrifugation in a mannitol and sucrose-based medium (Seahorse MAS buffer) containing 0.3% (w/v) BSA without or with 250 nM free calcium at pH 7.0. […] Compounds were added in these media just prior to loading the assay plate into the Seahorse instrument. Additions were made to set respiration in basal state 2 (substrate only), phosphorylating state 3 (5 mM ADP), non-phosphorylating state 4o (0.5 ug ⋅ mL^−1 oligomycin), and to reveal the non-mitochondrial rate (2 µM myxothiazol and 2.5 µM antimycin A). Each concentration of compound was tested in at least two wells on each plate. At least three biological replicates of each titration in each substrate condition were performed.

[5] = system: skeletal muscle mitochondria; assay: Mitochondrial membrane potential (ΔΨm, TMRM) powered by glutamate plus malate; format: biochemical, rat
Method: as §1, §2

mGPDH [6] = biological target: T1, mGPDH; assay: Superoxide/H2O2 production by mGPDH in isolated skeletal muscle mitochondria (Amplex UltraRed); format: biochemical
[7] = system: skeletal muscle mitochondria; assay: Mitochondrial membrane potential (ΔΨm, TMRM) powered by succinate; format: biochemical, rat; conditions: 2.5 mM; 5 mM succinate, rotenone, nigericin
Method: Mitochondrial membrane potential (ΔΨm) was estimated fluorimetrically as described previously on the Varian fluorimeter, except the potentiometric dye TMRM was used in quench-mode in place of safranine O [34]. […] The effect of putative small-molecule inhibitors was normalized as the % change in fluorescence between vehicle treatment and complete depolarization by the uncoupler carbonyl cyanide-4-(trifluoromethoxy)phenylhydrazone (FCCP, 2 µM) added at the end of each run. When indicated, the K^+/H^+ exchanger nigericin (80 ng ⋅ ml^−1) was added to collapse the pH gradient across the mitochondrial inner membrane (ΔpH) and maximize ΔΨm.
The assay buffer for both H2O2 and ΔΨm measurements was 120 mM KCl, 5 mM HEPES, 1 mM EGTA, 0.3% (w/v) BSA without or with 250 nM free calcium at pH 7.0. All assays were performed with stirring at 37°C.
Structure/activity analysis was performed on 18 structural analogs of two structurally-related hits from the primary screen (iGP-1 and iGP-2). These 20 compounds were tested in duplicate at 0.08–80 µM (0.1% DMSO final) in microplate format for effects on site-specific H2O2 production as described above. Additionally, four microplate assays for ΔΨm were run in parallel to the H2O2 assays. These assays were as described under “Measurement of mitochondrial H2O2 production and membrane potential” except that each substrate condition was assayed in a separate microplate. […] Plates were incubated in the dark at room temperature for 30–40 min (H2O2) or 10–15 min (ΔΨm) after the addition of substrate, and endpoint fluorescence was measured on the Victor plate reader. Endpoints were chosen for the H2O2 assays to provide good signal-to-noise ratios and linear rates of change without the indicator dye limiting the reaction. Endpoints for the ΔΨm assays were determined in pilot experiments as the times for TMRM accumulation to reach a steady state. […] Endpoint fluorescence values were normalized as described in the previous section with wells containing FCCP serving as positive controls for the ΔΨm assays.

[8] = biological target: T2, flavin site of complex II (site IIF) (Rattus norvegicus, UniProt Q920L2); assay: Site-specific H2O2 production from site IIF in skeletal muscle mitochondria; format: biochemical; conditions: 0.5 mM succinate, rotenone, myxothiazol, antimycin A; Fig. 2B
T2 construct: from tissue; host or cells: skeletal muscle mitochondria
Summary of the method: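 Isolated rat skeletal muscle mitochondria; H2O2 read by Amplex UltraRed with added SOD and HRP. Site IF/DH: 5 mM glutamate, 5 mM malate, 4 µM rotenone. Site IIF: palmitoylcarnitine or succinate with rotenone/antimycin A/myxothiazol. Site IIIQo: succinate, rotenone, antimycin A. Screen at 2.5 µM, normalised as % change from DMSO.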

T2 sequence (Q920L2 35-656): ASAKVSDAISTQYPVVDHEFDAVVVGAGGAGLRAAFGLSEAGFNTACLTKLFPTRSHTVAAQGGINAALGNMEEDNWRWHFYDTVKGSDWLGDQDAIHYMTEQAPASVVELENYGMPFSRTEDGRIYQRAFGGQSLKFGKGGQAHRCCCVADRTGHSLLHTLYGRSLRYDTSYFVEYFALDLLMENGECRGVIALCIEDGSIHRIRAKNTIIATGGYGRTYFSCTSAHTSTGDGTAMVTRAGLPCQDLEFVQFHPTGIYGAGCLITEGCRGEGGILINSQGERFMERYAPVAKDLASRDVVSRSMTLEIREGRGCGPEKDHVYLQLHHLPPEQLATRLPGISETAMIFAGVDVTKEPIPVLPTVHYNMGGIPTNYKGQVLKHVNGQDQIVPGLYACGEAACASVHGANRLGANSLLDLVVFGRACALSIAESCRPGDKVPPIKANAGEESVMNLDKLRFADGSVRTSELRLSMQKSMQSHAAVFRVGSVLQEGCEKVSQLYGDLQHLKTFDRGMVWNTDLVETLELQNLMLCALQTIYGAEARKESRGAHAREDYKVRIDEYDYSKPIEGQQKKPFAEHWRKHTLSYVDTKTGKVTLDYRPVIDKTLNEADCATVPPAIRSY
T2 sequence (P21913 31-282 partner): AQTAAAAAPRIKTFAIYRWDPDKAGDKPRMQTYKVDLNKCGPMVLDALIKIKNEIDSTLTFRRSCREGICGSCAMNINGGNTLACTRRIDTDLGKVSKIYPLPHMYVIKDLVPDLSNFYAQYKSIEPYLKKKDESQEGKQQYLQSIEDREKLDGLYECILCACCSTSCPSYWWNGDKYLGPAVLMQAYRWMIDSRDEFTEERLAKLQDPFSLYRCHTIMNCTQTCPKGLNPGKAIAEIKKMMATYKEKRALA
T2 sequence (Q641Z9 30-169 partner limits assumed): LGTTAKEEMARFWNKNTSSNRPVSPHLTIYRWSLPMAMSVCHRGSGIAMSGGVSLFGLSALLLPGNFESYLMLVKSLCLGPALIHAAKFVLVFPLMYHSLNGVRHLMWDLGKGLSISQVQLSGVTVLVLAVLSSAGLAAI
T2 sequence (Q6PCT8 57-159 partner): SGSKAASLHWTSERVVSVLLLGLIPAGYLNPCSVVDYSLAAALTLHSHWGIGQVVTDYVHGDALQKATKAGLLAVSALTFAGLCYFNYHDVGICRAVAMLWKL

SMILES: NOCC(=O)O [aminooxyacetate, reference compound]
- effect on basal or maximal respiration with pyruvate (cortical synaptosomes; 10 mM pyruvate): no effect
- effect on basal and maximal respiration with glucose (cortical synaptosomes; 15 mM glucose, no oxamate): inhibited

SMILES: O=C(O)CCC(=O)Nc1ccc(-c2nc3cc4ccccc4cc3[nH]2)cc1 [iGP-5]
- IQ H2O2 production with 5 mM Suc (% change at 80 μM) [1]: -9%
- mGPDH Activity Hill Slope (mGPDH [2]; 1 µM free calcium): 0.85 and 0.85±0.07
- IC50 (mGPDH [2]; 1 µM free calcium, Fig. 9A): 1000 ± 200 nM
- K iu (uncompetitive inhibitor dissociation constant) (mGPDH [2]; co-varying glycerol phosphate and inhibitor): 1.1 ± 0.0 µM
- Ki (mGPDH [2]; co-varying glycerol phosphate and inhibitor, read-out: K ic (competitive inhibitor dissociation constant)): 700 nM
- ΔΨm with GP + Nig (% change at 80 μM) ([3]; 80 μM, 4 µM rotenone, nigericin): -26%
- effect on ΔΨm powered by glycerol phosphate ([3]; 2.5 and 25 µM): significantly decreased
- effect on state 3 respiration with pyruvate and malate ([4]; 80 µM): significantly reduced
- effect on glycerol phosphate-dependent state 3 respiration ([4]; 25 and 80 µM): significantly decreased
- effect on ΔΨm powered by glutamate and malate ([5]; 25 µM, only in the absence of nigericin): significantly increased
- ΔΨm with Glu + Mal + Nig (% change at 80 μM) ([5]; 80 μM, 5 mM glutamate, 5 mM malate, with nigericin): 20%
- ΔΨm with Glu + Mal (% change at 80 μM) ([5]; 80 μM, 5 mM glutamate, 5 mM malate, without nigericin): 106%
- IC50 (mGPDH [6]; Fig. 4 structure/activity microplate assay, 0.08–80 µM, estimated, means of two replicates, read-out: mGPDH H2O2 production IC50): 700 nM
- IC50 (mGPDH [6]; Fig. 9B, read-out: mGPDH H2O2 Production IC50): 1000 ± 100 nM
- inhibition at 80 µM (mGPDH [6]; read-out: mGPDH H2O2 production (% change at 80 μM)): 65%
- IC50 (mGPDH [6]; titration up to 80 µM (Fig. 6B, Fig. 7B), read-out: half-maximal effect on H2O2 production by mGPDH): ~1000 nM

SMILES: O=CC(O)COP(=O)(O)O (stereo not shown) [glyceraldehyde 3-phosphate, reference compound]
- effect on ΔΨm powered by succinate [7]: significantly increased
- effect on ΔΨm powered by glycerol phosphate ([3]; all concentrations tested, rotenone, atpenin A5, nigericin): significantly decreased
- effect on the rate of H2O2 production from site IIF [8]: significantly inhibited
- inhibition at 2500 µM (mGPDH [6]; 2.5 mM, 1.7 mM glycerol phosphate, 250 nM free calcium, read-out: inhibition of the rate of H2O2 production from mGPDH): ~80%
